Test results taken from the NIST ThermoML archive (doi:10.1021/je200788z).
Numbers after ± are expanded uncertainties.

Legend:
[1] = 101.33 kPa, Liquid; for speed of sound: Sing-around technique in a fixed-path interferometer; for mass density: Vibrating tube method
[2] = refractive index (Na D-line) (dimensionless); details: 101.33 kPa, Liquid, Standard Abbe refractometry

CC(C)COC(=O)[C@@H](N)C(C)C.CCCCCCCCCCCCOS(=O)(=O)O [isobutyl L-valinate dodecyl sulfate]
Details | refractive index, [2] | speed of sound, [1] [m/s]
288.15 K | 1.4568 ± 0.0011 | 1434.4 ± 5.1
293.15 K | 1.4555 ± 0.0011 | 1421.3 ± 5.1
298.15 K | 1.4538 ± 0.0011 | 1408.6 ± 5
303.15 K | 1.4519 ± 0.0011 | 1394.6 ± 5
308.15 K | 1.4505 ± 0.0011 | 1379.9 ± 5
313.15 K | 1.4488 ± 0.0011 | 1365.5 ± 5
318.15 K | 1.4471 ± 0.0011 | 1350.9 ± 5
323.15 K | 1.4455 ± 0.0011 | 1335.5 ± 5
328.15 K | 1.4438 ± 0.0011 | 1318.1 ± 5
333.15 K | 1.4422 ± 0.0011 | 1299.9 ± 5
338.15 K | 1.4406 ± 0.0011 | 1275 ± 5
343.15 K | 1.439 ± 0.0011 | 1249.5 ± 5

CC(C)OC(=O)C[NH3+].CCCCCCCCCCCCOS(=O)(=O)[O-] [2-isopropoxy-2-oxoethan-1-aminium dodecyl sulfate]
Details | mass density, [1] [kg/m3] | refractive index, [2] | speed of sound, [1] [m/s]
303.15 K | 1025.14 ± 5.7 | 1.463 ± 0.0011 | 1373.4 ± 5
308.15 K | 1021.37 ± 5.6 | 1.4603 ± 0.0011 | 1355.1 ± 5
313.15 K | 1017.68 ± 5.6 | 1.4576 ± 0.0011 | 1337.6 ± 5
318.15 K | 1014.16 ± 5.5 | 1.4549 ± 0.0011 | 1320.9 ± 5
323.15 K | 1010.65 ± 5.5 | 1.4529 ± 0.0011 | 1305 ± 5
328.15 K | 1007.14 ± 5.5 | 1.4497 ± 0.0011 | 1289.6 ± 5
333.15 K | 1003.63 ± 5.4 | 1.4465 ± 0.0011 | 1274.6 ± 5
338.15 K | 1000.12 ± 5.4 | 1.4441 ± 0.0011 | 1259.9 ± 5
343.15 K | 996.58 ± 5.4 | 1.4414 ± 0.0011 | 1245.8 ± 5

CC(C)OC(=O)[C@@H]1CCC[NH2+]1.CCCCCCCCCCCCOS(=O)(=O)[O-] [(S)-2-(isopropoxycarbonyl)pyrrolidin-1-ium dodecyl sulfate]
Details | mass density, [1] [kg/m3] | refractive index, [2] | speed of sound, [1] [m/s]
288.15 K | 1054.33 ± 6 | 1.4575 ± 0.0011 | 1455.5 ± 5.1
293.15 K | 1050.45 ± 6 | 1.4559 ± 0.0011 | 1436.8 ± 5.1
298.15 K | 1046.8 ± 5.9 | 1.4542 ± 0.0011 | 1419.2 ± 5.1
303.15 K | 1043.15 ± 5.9 | 1.4525 ± 0.0011 | 1402.4 ± 5
308.15 K | 1039.52 ± 5.8 | 1.451 ± 0.0011 | 1386.3 ± 5
313.15 K | 1035.89 ± 5.8 | 1.4492 ± 0.0011 | 1370.7 ± 5
318.15 K | 1032.27 ± 5.8 | 1.4478 ± 0.0011 | 1355.5 ± 5
323.15 K | 1028.73 ± 5.7 | 1.4461 ± 0.0011 | 1340.6 ± 5
328.15 K | 1025.22 ± 5.7 | 1.4446 ± 0.0011 | 1326 ± 5
333.15 K | 1021.7 ± 5.6 | 1.4432 ± 0.0011 | 1311.7 ± 5
338.15 K | 1018.2 ± 5.6 | 1.4414 ± 0.0011 | 1297.6 ± 5
343.15 K | 1014.69 ± 5.6 | 1.4398 ± 0.0011 | 1284 ± 5

CC(C)OC(=O)CC[C@H]([NH3+])C(=O)OC(C)C.CCCCCCCCCCCCOS(=O)(=O)[O-]
Details | mass density, [1] [kg/m3] | refractive index, [2] | speed of sound, [1] [m/s]
288.15 K | 1057.9 ± 6.1 | 1.4575 ± 0.0011 | 1439.7 ± 5.1
293.15 K | 1054.11 ± 6 | 1.4559 ± 0.0011 | 1412.8 ± 5.1
298.15 K | 1050.31 ± 6 | 1.4542 ± 0.0011 | 1389 ± 5
303.15 K | 1046.47 ± 5.9 | 1.4528 ± 0.0011 | 1367.6 ± 5
308.15 K | 1042.57 ± 5.9 | 1.4509 ± 0.0011 | 1347.9 ± 5
313.15 K | 1038.6 ± 5.8 | 1.4493 ± 0.0011 | 1329.5 ± 5
318.15 K | 1034.81 ± 5.8 | 1.4476 ± 0.0011 | 1312 ± 5
323.15 K | 1031.13 ± 5.8 | 1.4461 ± 0.0011 | 1295.3 ± 5
328.15 K | 1027.46 ± 5.7 | 1.4442 ± 0.0011 | 1279.2 ± 5
333.15 K | 1023.79 ± 5.7 | 1.4429 ± 0.0011 | 1263.5 ± 5
338.15 K | 1021.2 ± 5.6 | 1.441 ± 0.0011 | 1248.3 ± 5
343.15 K | 1016.44 ± 5.6 | 1.4392 ± 0.0011 | 1233.6 ± 5

CC(C)COC(=O)[C@H](C)[NH3+].CCCCCCCCCCCCOS(=O)(=O)[O-] [(S)-1-isobutoxy-1-oxopropan-2-aminium dodecyl sulfate]
Details | mass density, [1] [kg/m3] | refractive index, [2] | speed of sound, [1] [m/s]
288.15 K | 1049.18 ± 6 | 1.456 ± 0.0011 | 1447.6 ± 5.1
293.15 K | 1045.48 ± 5.9 | 1.454 ± 0.0011 | 1423.6 ± 5.1
298.15 K | 1041.75 ± 5.9 | 1.452 ± 0.0011 | 1401.9 ± 5
303.15 K | 1038.02 ± 5.8 | 1.45 ± 0.0011 | 1381.6 ± 5
308.15 K | 1034.13 ± 5.8 | 1.4479 ± 0.0011 | 1362.5 ± 5
313.15 K | 1030.13 ± 5.7 | 1.4458 ± 0.0011 | 1343.9 ± 5
318.15 K | 1026.31 ± 5.7 | 1.4437 ± 0.0011 | 1325.8 ± 5
323.15 K | 1022.6 ± 5.7 | 1.4418 ± 0.0011 | 1308.1 ± 5
328.15 K | 1019.08 ± 5.6 | 1.4397 ± 0.0011 | 1291.2 ± 5
333.15 K | 1015.6 ± 5.6 | 1.4377 ± 0.0011 | 1275.8 ± 5
338.15 K | 1012.14 ± 5.5 | 1.4354 ± 0.0011 | 1261 ± 5
343.15 K | 1008.75 ± 5.5 | 1.4336 ± 0.0011 | 1246.6 ± 5

CC(C)COC(=O)[C@@H]1CCC[NH2+]1.CCCCCCCCCCCCOS(=O)(=O)[O-] [(S)-2-(isobutoxycarbonyl)pyrrolidinium dodecyl sulfate]
Details | mass density, [1] [kg/m3] | refractive index, [2] | speed of sound, [1] [m/s]
288.15 K | 1043.22 ± 5.9 | 1.4648 ± 0.0011 | 1460.2 ± 5.1
293.15 K | 1039.54 ± 5.8 | 1.4623 ± 0.0011 | 1445.2 ± 5.1
298.15 K | 1035.88 ± 5.8 | 1.4598 ± 0.0011 | 1429.2 ± 5.1
303.15 K | 1032.22 ± 5.8 | 1.4574 ± 0.0011 | 1413 ± 5
308.15 K | 1028.57 ± 5.7 | 1.4549 ± 0.0011 | 1397.2 ± 5
313.15 K | 1024.92 ± 5.7 | 1.4524 ± 0.0011 | 1381.5 ± 5
318.15 K | 1021.27 ± 5.6 | 1.45 ± 0.0011 | 1366.1 ± 5
323.15 K | 1017.72 ± 5.6 | 1.4477 ± 0.0011 | 1349.1 ± 5
328.15 K | 1014.21 ± 5.5 | 1.4452 ± 0.0011 | 1332.9 ± 5
333.15 K | 1010.85 ± 5.5 | 1.4427 ± 0.0011 | 1316.8 ± 5
338.15 K | 1007.61 ± 5.5 | 1.4401 ± 0.0011 | 1301.5 ± 5
343.15 K | 1004.98 ± 5.5 | 1.4378 ± 0.0011 | 1286.2 ± 5

CC(C)OC(=O)[C@@H]([NH3+])C(C)C.CCCCCCCCCCCCOS(=O)(=O)[O-]
Details | mass density, [1] [kg/m3] | refractive index, [2] | speed of sound, [1] [m/s]
288.15 K | 1033.35 ± 5.8 | 1.4555 ± 0.0011 | 1438.4 ± 5.1
293.15 K | 1029.74 ± 5.7 | 1.4541 ± 0.0011 | 1418.5 ± 5.1
298.15 K | 1026.11 ± 5.7 | 1.4527 ± 0.0011 | 1400.5 ± 5
303.15 K | 1022.44 ± 5.7 | 1.4514 ± 0.0011 | 1382.9 ± 5
308.15 K | 1018.71 ± 5.6 | 1.4495 ± 0.0011 | 1365.9 ± 5
313.15 K | 1014.93 ± 5.6 | 1.4483 ± 0.0011 | 1349.4 ± 5
318.15 K | 1011.36 ± 5.5 | 1.4465 ± 0.0011 | 1333.2 ± 5
323.15 K | 1007.86 ± 5.5 | 1.445 ± 0.0011 | 1317.4 ± 5
328.15 K | 1004.37 ± 5.4 | 1.4434 ± 0.0011 | 1301.9 ± 5
333.15 K | 1000.88 ± 5.4 | 1.4419 ± 0.0011 | 1286.6 ± 5
338.15 K | 997.39 ± 5.4 | 1.4403 ± 0.0011 | 1270.4 ± 5
343.15 K | 993.9 ± 5.3 | 1.4388 ± 0.0011 | 1254.9 ± 5

CC(C)COC(=O)C[NH3+].CCCCCCCCCCCCOS(=O)(=O)[O-] [2-isobutoxy-2-oxoethan-1-aminium dodecyl sulfate]
Details | mass density, [1] [kg/m3] | refractive index, [2] | speed of sound, [1] [m/s]
303.15 K | 1013.62 ± 5.5 | 1.4624 ± 0.0011 | 1372.1 ± 5
308.15 K | 1009.88 ± 5.5 | 1.4592 ± 0.0011 | 1355.2 ± 5
313.15 K | 1006.14 ± 5.5 | 1.456 ± 0.0011 | 1339 ± 5
318.15 K | 1002.38 ± 5.4 | 1.4527 ± 0.0011 | 1323 ± 5
323.15 K | 998.71 ± 5.4 | 1.4494 ± 0.0011 | 1307.6 ± 5
328.15 K | 995.15 ± 5.3 | 1.4462 ± 0.0011 | 1292.5 ± 5
333.15 K | 991.89 ± 5.3 | 1.443 ± 0.0011 | 1277.6 ± 5
338.15 K | 988.22 ± 5.3 | 1.4397 ± 0.0011 | 1263 ± 5
343.15 K | 984.53 ± 5.2 | 1.4365 ± 0.0011 | 1248.7 ± 5

CC(C)COC(=O)CC[C@H]([NH3+])C(=O)OCC(C)C.CCCCCCCCCCCCOS(=O)(=O)[O-]
Details | mass density, [1] [kg/m3] | refractive index, [2] | speed of sound, [1] [m/s]
323.15 K | 1014.45 ± 5.6 | 1.4472 ± 0.0011 | 1330.6 ± 5
328.15 K | 1010.78 ± 5.5 | 1.4453 ± 0.0011 | 1314.4 ± 5
333.15 K | 1007.13 ± 5.5 | 1.4432 ± 0.0011 | 1299.9 ± 5
338.15 K | 1003.54 ± 5.4 | 1.4414 ± 0.0011 | 1284.2 ± 5
343.15 K | 1000 ± 5.4 | 1.4393 ± 0.0011 | 1270.5 ± 5
